According to paper PMC5449191 (Nature plants, 2016):

Assays:
CsACT = CsACT (Cucumis sativus, UniProt A0A097IYL7); assay: acetyltransferase assay, LC-MS of product; format: biochemical; conditions: 400 μM acetyl-CoA, 400 μM substrate, pH 7.5, 31°C
CmACT = CmACT (Cucumis melo, UniProt A0A1S3CAV7); assay: acetyltransferase assay, LC-MS of product; format: biochemical; conditions: 400 μM acetyl-CoA, 400 μM substrate, pH 7.5, 31°C

Row | SMILES | acetyltransferase assay, LC-MS of product (CsACT) | acetyltransferase assay, LC-MS of product (CmACT; product CuB) | acetyltransferase assay, LC-MS of product (CmACT)
1 | CC(C)(O)/C=C/C(=O)[C@](C)(O)[C@H]1[C@H](O)C[C@@]2(C)[C@@H]3CC=C4[C@@H](C[C@H](O)C(=O)C4(C)C)[C@]3(C)C(=O)C[C@]12C [CuD] | acylate a wide range of substrates (e.g., CuD, CuI, and deacetyl CuC) | able to acetylate the cucurbitacin precursors CuD and CuI | –
2 | CC(C)(O)/C=C/C(=O)[C@](C)(O)[C@H]1[C@H](O)C[C@@]2(C)[C@@H]3CC=C4[C@@H](C=C(O)C(=O)C4(C)C)[C@]3(C)C(=O)C[C@]12C [CuI] | – | – | acylate a wide range of substrates (e.g., CuD, CuI, and deacetyl CuC)
3 | CC(C)(O)/C=C/C(=O)[C@](C)(O)[C@H]1[C@H](O)C[C@@]2(C)[C@@H]3CC=C4[C@@H](CC[C@H](O)C4(C)C)[C@]3(CO)C(=O)C[C@]12C [deacetyl CuC] | acylate a wide range of substrates (e.g., CuD, CuI, and deacetyl CuC) | – | –
